In patent US11274095B2, “Modulators of methyl modifying enzymes, compositions and uses thereof” (Constellation Pharmaceuticals, Inc., priority 2018, dated 2022):

Experiment: Cellular permeability in MDCK assay
Assay type: in vitro ADME
Settings: dog, pH 7.4, MDCK II, with P-gp inhibitor GF120918 10 μM; for efflux ratio at 2.5 h, 2 μM: Papp(BA)/Papp(AB)
Protocol: Cell culture: MDCK II cells (obtained from Piet Borst at the Netherlands Cancer Institute) were seeded onto […] (PET) in 96-well BD insert systems at 2.5×10^5 cells/mL until to 4-7 days for confluent cell monolayer formation.
Experimental procedure: Test and reference compounds (nadolol, metoprolol and digoxin) were diluted with transport buffer (HBSS with 10mM Hepes, pH7.4) from stock solution to a concentration of 2 μM (<1% DMSO) and applied to the apical (A) or basolateral (B) side of the cell monolayer. Permeation of the test compounds from A to B direction or B to A direction was determined in duplicate with P-gp inhibitor (GF120918, 10 μM). Digoxin was tested at 10 μM from A to B direction or B to A direction with/without P-gp inhibitor (GF120918, 10 μM) as well, while nadolol and metoprolol were tested at 2 μM in A to B direction without P-gp inhibitor (GF120918, 10 μM) in duplicate. The plate was incubated for 2.5 hours in CO2 incubator at 37±1° C., with 5% CO2 at saturated humidity without shaking. In addition, the efflux ratio of each compound was also determined. Test and reference compounds were quantified by LC/MS/MS analysis based on the peak area ratio of analyte/IS. After transport assay, Lucifer yellow rejection assay are applied to determine the cell monolayer integrity. Buffers are removed from both apical and basolateral chambers, followed by the addition of 75 μL of 100 μM lucifer yellow in transport buffer and 250 μL transport buffer in apical and basolateral chambers, respectively. The plate is incubated for 30 minutes at 37° C. with 5% CO2 and 95% relative humidity without shaking. After 30 minutes incubation, 20 μL of lucifer yellow samples are taken from the apical sides, followed by the addition of 60 μL of Transport Buffer. And then 80 μL of lucifer yellow samples are taken from the basolateral sides. The relative fluorescence unit (RFU) of lucifer yellow is measured at 425/528 nm (excitation/emission) with a Molecular Device M2e plate reader.
Data analysis: The apparent permeability coefficient Papp (cm/s) was calculated using the equation: Papp=(dCr/dt)×Vr/(A×C0) Where dCr/dt is the cumulative concentration of compound in the receiver chamber as a function of time (μM/s); Vr is the solution volume in the receiver chamber (0.075 mL on the apical side, 0.25 mL on the basolateral side); A is the surface area for the transport, i.e. 0.0804 cm2 for the area of the monolayer; C0 is the initial concentration in the donor chamber (μM).
The efflux ratio was calculated using the equation: Efflux Ratio=Papp(BA)/Papp(AB) Percent recovery was calculated using the equation: % Recovery=100×[(Vr×Cr)+(Vd×Cd)]/(Vd×C0) Where Vd is the volume in the donor chambers (0.075 mL on the apical side, 0.25 mL on the basolateral side); Cd and Cr are the final concentrations of transport compound in donor and receiver chambers, respectively.
Percent of lucifer yellow in basolateral well is calculated using the equation:
[formula] where RFUApical and RFUBasolateral are the relative fluorescence unit values of lucifer yellow in the apical and basolateral wells, respectively; VApical and VBasolateral are the volume of apical and basolateral wells (0.075 mL and 0.25 mL), respectively. Percent lucifer yellow should be less than 2.

Row | Papp at 2.5 h, 2 μM [×10⁻⁶ cm/s] | efflux ratio at 2.5 h, 2 μM | SMILES
1 | 6.3 | 1.2 | CSc1cc(C)[nH]c(=O)c1CNC(=O)c1cc(Cl)c2c(c1C)OC(C)(C1CCC(N3CC(F)C3)CC1)O2 (single isomer, unassigned) [Example 12]
2 | 2.5 | 1.8 | COC1CN(C2CCC(C3(C)Oc4c(Cl)cc(C(=O)NCc5c(SC)cc(C)[nH]c5=O)c(C)c4O3)CC2)C1 (single isomer, unassigned) [Example 17, 7-chloro-2-(4-(3-methoxyazetidin-1-yl)cyclohexyl)-2,4-dimethyl-N-((6-methyl-4-(methylthio)-2-oxo-1,2-dihydropyridin-3-yl)methyl)benzo[d][1,3]dioxole-5-carboxamide]

Continued, compound first:

Row | SMILES | Papp at 2.5 h, 2 μM [×10⁻⁶ cm/s] | efflux ratio at 2.5 h, 2 μM
3 | CSc1cc(C)[nH]c(=O)c1CNC(=O)c1cc(Cl)c2c(c1C)OC(C)(C1CCC(N3CC(OC(F)F)C3)CC1)O2 (single isomer, unassigned) [Example 1, 7-chloro-2-(4-(3-(difluoromethoxy)azetidin-1-yl)cyclohexyl)-2,4-dimethyl-N-((6-methyl-4-(methylthio)-2-oxo-1,2-dihydropyridin-3-yl)methyl)benzo[d][1,3]dioxole-5-carboxamide] | 5.6 | 0.79
4 | Cc1cc(Cl)c(CNC(=O)c2cc(Cl)c3c(c2C)OC(C)(C2CCC(N4CC(OC5CC5)C4)CC2)O3)c(=O)[nH]1 (single isomer, unassigned) [Example 8, 7-chloro-N-((4-chloro-6-methyl-2-oxo-1,2-dihydropyridin-3-yl)methyl)-2-(4-(3-cyclopropoxyazetidin-1-yl)cyclohexyl)-2,4-dimethylbenzo[d][1,3]dioxole-5-carboxamide] | 6.1 | 0.9
5 | CSc1cc(C)[nH]c(=O)c1CNC(=O)c1cc(Cl)c2c(c1C)OC(C)(C1CCC(N3CC(OC4CC4)C3)CC1)O2 (single isomer, unassigned) [Example 9] | 3.8 | 1.4
6 | CSc1nc(C)[nH]c(=O)c1CNC(=O)c1cc(Cl)c2c(c1C)OC(C)(C1CCC(N3CC(OC(F)F)C3)CC1)O2 (single isomer, unassigned) [Example 10] | 6.5 | 0.69
7 | Cc1cc(Cl)c(CNC(=O)c2cc(Cl)c3c(c2C)OC(C)(C2CCC(N4CC(OC(F)F)C4)CC2)O3)c(=O)[nH]1 (single isomer, unassigned) [Example 13] | 8.9 | 0.64
